Data taken from ChEMBL document CHEMBL3616395, “Discovery of 4-arylamido 3-methyl isoxazole derivatives as novel FMS kinase inhibitors” (Eur J Med Chem, 2015).
Calls of active or inactive are those of the source. The rule behind the calls is not given here.

Tests used:
[1] = target: Macrophage colony-stimulating factor 1 receptor (Homo sapiens, UniProt P07333); assay: Inhibition of FMS (unknown origin) after 40 mins by scintillation counting analysis
[2] = system: U-937; assay: Antiproliferative activity against human U937 cells after 24 hrs by MTT assay; type: functional
[3] = target: RAF proto-oncogene serine/threonine-protein kinase (Homo sapiens, UniProt P04049); assay: Inhibition of RAF1 (unknown origin) at 10 uM after 40 mins by scintillation counting analysis
Sequence of RAF proto-oncogene serine/threonine-protein kinase (P04049 whole entry): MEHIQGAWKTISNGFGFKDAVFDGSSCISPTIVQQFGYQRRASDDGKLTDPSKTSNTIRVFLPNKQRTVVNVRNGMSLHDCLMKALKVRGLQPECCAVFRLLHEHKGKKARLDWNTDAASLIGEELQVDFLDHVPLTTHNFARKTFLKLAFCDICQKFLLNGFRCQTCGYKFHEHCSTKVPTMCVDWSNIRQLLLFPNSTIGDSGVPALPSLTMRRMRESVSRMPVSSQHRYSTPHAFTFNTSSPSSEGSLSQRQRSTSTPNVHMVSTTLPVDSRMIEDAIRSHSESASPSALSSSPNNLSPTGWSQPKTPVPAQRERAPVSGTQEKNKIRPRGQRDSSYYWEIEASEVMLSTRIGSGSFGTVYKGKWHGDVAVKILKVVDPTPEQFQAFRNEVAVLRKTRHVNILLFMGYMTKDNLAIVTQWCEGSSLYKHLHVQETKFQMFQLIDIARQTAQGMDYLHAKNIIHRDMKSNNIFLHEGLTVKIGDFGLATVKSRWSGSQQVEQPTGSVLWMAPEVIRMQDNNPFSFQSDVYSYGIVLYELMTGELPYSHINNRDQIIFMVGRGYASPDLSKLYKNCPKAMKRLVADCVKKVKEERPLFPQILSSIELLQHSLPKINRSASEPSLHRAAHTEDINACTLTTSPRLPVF

[4] = target: Tyrosine-protein kinase JAK3 (Homo sapiens) (UniProt P52333); assay: Inhibition of Jak3 (unknown origin) at 10 uM after 40 mins by scintillation counting analysis
Sequence of Tyrosine-protein kinase JAK3 (Homo sapiens) (P52333 whole entry): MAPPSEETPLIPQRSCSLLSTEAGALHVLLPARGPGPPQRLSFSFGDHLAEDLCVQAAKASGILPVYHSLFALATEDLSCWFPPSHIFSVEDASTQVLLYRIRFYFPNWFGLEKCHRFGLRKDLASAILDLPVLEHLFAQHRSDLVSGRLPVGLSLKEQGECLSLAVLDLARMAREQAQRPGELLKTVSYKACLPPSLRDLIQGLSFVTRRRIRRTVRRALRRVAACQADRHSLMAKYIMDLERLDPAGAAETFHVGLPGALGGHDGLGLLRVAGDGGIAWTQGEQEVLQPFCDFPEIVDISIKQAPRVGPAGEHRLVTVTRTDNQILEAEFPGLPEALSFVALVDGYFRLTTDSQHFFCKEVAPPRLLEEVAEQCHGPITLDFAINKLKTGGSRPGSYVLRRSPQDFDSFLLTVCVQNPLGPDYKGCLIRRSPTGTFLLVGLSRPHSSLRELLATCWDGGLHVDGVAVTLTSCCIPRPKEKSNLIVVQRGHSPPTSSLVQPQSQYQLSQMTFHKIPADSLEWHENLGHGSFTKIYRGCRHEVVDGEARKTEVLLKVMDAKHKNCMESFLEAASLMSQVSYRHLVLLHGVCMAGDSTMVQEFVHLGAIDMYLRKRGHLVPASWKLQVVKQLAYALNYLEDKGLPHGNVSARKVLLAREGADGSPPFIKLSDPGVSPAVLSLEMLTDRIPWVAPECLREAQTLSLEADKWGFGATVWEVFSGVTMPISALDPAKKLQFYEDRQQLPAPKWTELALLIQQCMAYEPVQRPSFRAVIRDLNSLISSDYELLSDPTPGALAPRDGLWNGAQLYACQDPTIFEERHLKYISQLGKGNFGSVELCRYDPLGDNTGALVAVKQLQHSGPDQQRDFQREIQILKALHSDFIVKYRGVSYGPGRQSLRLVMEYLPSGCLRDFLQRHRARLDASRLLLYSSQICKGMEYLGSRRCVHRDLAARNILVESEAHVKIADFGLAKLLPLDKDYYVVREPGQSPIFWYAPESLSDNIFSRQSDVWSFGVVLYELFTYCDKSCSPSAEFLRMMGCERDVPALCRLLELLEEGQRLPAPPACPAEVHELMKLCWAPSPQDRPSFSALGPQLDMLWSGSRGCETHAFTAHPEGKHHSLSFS

[5] = target: Vascular endothelial growth factor receptor 3 (Homo sapiens) (UniProt P35916); assay: Inhibition of FLT4 (unknown origin) at 10 uM after 40 mins by scintillation counting analysis
[6] = target: Epidermal growth factor receptor (Homo sapiens) (UniProt P00533); assay: Inhibition of EGFR (unknown origin) at 10 uM after 40 mins by scintillation counting analysis
[7] = target: Serine/threonine-protein kinase B-raf (Homo sapiens, UniProt P15056); assay: Inhibition of BRAF (unknown origin) at 10 uM after 40 mins by scintillation counting analysis
Sequence of Serine/threonine-protein kinase B-raf (P15056 whole entry): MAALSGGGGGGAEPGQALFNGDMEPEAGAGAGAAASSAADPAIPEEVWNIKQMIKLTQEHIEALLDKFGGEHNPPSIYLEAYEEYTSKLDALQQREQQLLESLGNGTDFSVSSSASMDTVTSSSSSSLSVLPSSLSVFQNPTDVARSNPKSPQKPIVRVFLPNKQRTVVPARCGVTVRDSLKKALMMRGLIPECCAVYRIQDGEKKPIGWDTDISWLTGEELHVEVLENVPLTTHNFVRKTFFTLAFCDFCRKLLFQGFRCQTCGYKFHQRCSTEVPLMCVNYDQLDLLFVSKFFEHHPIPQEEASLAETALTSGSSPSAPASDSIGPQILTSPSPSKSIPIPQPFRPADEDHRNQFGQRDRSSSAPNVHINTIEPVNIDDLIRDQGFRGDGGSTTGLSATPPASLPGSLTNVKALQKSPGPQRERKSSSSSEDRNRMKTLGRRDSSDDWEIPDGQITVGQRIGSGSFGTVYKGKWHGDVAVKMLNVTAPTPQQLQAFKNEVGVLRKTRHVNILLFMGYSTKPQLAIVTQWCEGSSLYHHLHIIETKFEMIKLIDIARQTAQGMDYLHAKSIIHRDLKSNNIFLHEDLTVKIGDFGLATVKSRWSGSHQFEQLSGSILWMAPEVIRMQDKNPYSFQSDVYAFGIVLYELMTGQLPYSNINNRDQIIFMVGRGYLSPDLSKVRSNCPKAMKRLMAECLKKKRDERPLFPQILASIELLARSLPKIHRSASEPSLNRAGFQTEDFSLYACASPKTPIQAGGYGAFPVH

[8] = target: Hepatocyte growth factor receptor (Homo sapiens) (UniProt P08581); assay: Inhibition of c-MET (unknown origin) at 10 uM after 40 mins by scintillation counting analysis
[9] = target: Macrophage-stimulating protein receptor (Homo sapiens) (UniProt Q04912); assay: Inhibition of RON (unknown origin) at 10 uM after 40 mins by scintillation counting analysis
Sequence of Macrophage-stimulating protein receptor (Homo sapiens) (Q04912 25-304 limits assumed): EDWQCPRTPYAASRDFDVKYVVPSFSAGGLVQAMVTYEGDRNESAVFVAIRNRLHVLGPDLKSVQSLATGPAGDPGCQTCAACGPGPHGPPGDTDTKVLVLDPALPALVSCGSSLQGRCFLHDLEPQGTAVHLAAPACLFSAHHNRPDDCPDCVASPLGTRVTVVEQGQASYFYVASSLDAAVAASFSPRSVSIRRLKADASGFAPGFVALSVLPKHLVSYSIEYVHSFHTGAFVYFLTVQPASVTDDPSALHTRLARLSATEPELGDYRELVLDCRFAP
Sequence of Macrophage-stimulating protein receptor (Homo sapiens) (Q04912 310-1400 limits assumed): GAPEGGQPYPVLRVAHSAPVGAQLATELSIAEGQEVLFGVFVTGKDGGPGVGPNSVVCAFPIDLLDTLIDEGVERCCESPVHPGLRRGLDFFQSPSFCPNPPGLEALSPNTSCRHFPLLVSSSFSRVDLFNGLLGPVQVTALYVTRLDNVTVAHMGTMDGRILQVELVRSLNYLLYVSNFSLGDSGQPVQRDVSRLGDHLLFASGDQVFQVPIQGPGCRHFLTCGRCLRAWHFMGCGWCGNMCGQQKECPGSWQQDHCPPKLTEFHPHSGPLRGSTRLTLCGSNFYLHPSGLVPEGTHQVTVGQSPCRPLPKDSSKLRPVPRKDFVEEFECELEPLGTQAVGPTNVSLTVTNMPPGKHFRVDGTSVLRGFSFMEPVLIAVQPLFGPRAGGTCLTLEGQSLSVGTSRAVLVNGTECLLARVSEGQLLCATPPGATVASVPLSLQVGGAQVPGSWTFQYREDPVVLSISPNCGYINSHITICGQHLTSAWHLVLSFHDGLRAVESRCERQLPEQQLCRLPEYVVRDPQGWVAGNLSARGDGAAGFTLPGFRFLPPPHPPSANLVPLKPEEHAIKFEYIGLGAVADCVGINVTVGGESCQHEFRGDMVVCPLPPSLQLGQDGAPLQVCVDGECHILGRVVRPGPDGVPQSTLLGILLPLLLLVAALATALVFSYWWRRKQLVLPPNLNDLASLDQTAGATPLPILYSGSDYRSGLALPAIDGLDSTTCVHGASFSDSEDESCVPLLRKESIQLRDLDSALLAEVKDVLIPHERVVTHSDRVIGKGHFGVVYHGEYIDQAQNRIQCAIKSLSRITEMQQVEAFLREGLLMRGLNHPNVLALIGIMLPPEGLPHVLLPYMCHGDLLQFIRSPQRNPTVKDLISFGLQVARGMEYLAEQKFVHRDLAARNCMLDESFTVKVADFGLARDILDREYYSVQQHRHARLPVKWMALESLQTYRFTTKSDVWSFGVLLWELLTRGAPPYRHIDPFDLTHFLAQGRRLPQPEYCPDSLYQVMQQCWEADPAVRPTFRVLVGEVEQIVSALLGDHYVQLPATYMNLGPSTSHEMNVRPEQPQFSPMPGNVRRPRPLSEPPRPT

[10] = target: Proto-oncogene tyrosine-protein kinase ROS (Homo sapiens) (UniProt P08922); assay: Inhibition of ROS1 (unknown origin) at 10 uM after 40 mins by scintillation counting analysis
[11] = target: Insulin-like growth factor 1 receptor (Homo sapiens) (UniProt P08069); assay: Inhibition of IGF1R (unknown origin) at 10 uM after 40 mins by scintillation counting analysis

Sequence of Macrophage colony-stimulating factor 1 receptor (P07333 whole entry): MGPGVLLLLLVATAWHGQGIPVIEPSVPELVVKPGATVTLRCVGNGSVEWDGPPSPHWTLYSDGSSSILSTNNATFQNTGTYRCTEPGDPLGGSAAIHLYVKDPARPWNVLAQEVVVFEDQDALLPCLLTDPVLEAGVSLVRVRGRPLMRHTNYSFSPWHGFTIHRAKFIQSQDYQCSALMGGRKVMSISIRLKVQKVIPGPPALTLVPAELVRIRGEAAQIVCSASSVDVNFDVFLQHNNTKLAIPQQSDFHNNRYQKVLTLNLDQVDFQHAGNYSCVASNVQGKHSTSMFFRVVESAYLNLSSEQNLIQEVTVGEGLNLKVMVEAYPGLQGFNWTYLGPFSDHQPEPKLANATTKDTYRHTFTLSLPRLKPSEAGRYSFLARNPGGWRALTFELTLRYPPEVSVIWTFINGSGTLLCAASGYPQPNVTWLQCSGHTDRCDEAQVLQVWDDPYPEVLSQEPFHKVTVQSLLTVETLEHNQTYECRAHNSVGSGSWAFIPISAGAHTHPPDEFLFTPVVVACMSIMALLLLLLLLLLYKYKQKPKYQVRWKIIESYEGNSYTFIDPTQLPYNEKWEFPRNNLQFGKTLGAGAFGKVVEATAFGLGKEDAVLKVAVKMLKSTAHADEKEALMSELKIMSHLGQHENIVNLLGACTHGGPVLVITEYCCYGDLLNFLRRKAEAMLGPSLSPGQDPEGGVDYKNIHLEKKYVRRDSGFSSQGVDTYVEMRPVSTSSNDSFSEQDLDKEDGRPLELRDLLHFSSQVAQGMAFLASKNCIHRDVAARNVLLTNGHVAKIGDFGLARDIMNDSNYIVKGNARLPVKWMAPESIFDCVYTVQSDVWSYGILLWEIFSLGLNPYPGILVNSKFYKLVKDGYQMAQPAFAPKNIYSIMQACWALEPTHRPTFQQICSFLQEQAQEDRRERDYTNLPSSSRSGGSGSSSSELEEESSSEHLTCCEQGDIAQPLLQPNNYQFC

IC50 [1]: 216 nM | GI50 [2]: Active | inhibition [3]: inactive | inhibition [4]: inactive | inhibition [5]: inactive | inhibition [6]: inactive | inhibition [7]: inactive | inhibition [8]: inactive | inhibition [9]: inactive | inhibition [10]: inactive | inhibition [11]: inactive
Structure (SMILES): Cc1ccccc1C(=O)Nc1cnoc1C
